Measurements: US12459951B2, “Compounds that interact with RAS superfamily proteins for treatment of cancers, inflammatory diseases, rasopathies, and fibrotic disease” (SHY Therapeutics, LLC, priority 2022, dated 2025)
Where a name gives a salt, the structure may show the parent alone.

Experiments:
[1] = tested on: JNK phosphorylation; test: JNK Activation Assay (western blot), Panc-1; assay type: cell-based, human; conditions: at 10 μM, Panc-1 pancreatic cancer cell line; starred symbols = activation
Outline: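 KRas G12C Panc-1 cells treated 6 h at 37 °C with compound at 10 μM (0.3% DMSO), or serial dilutions for IC50. In Method 1 cells were serum-starved overnight (0.5% FBS) then stimulated with 1.5 ng/ml EGF for 15 min; Method 2 used 10% FBS without stimulation. Phospho-JNK (Thr183/Tyr185) measured by western blot.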

[2] = tested on: MAPK p38 phosphorylation; test: MAPK p38 Activation Assay (western blot), Panc-1; assay type: cell-based, human; conditions: at 10 μM, Panc-1 pancreatic cancer cell line; starred symbols = activation
Outline: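 Panc-1 cells (KRas G12D) were treated with compound for 6 h at 37 °C, at 10 μM or as serial dilutions for IC50, with 0.3% DMSO. Method 1 used overnight serum-starved cells (0.5% FBS) stimulated with 1.5 ng/ml EGF for 15 min; Method 2 used unstimulated cells in 10% FBS. Phospho-p38 (Thr180/Tyr182) was detected by western blot.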

[3] = molecular target: T1, cdc42 (Homo sapiens, UniProt P60953); test: Cdc42 GTP Binding Domain Inhibition Assay; conditions: read-out: Cdc42: % inh.
T1 construct: made in house
T1 sequence (P60953 whole entry, the tested form may be a part): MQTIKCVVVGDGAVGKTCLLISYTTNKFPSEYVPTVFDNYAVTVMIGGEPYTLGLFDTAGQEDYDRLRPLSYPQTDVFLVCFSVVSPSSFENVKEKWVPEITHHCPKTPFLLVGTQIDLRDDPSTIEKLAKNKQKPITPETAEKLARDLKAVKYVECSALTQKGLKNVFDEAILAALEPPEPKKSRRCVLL
Outline: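 His-tagged cdc42 or Rheb (10–30 μg/mL) bound to nickel plates, then exposed to compound (20 μM, or serial dilutions for IC50) in 1% DMSO for 3 h at room temperature, ±Sos during final hour. Cy3- or Cy5-GTP (100 nM) added for 45 min; bound labelled GTP read by fluorescence after washes.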

SMILES | % inh of JNK in Panc-1 [1] | % inh of MAPK p38 in Panc-1 [2] | inhibition at 20 µM [3] [%]
CO[C@H]1CC[C@@H](Nc2nc(-c3nccn3C)nn3cc(-c4ccn(C(C)C)n4)c(C)c23)C1 (racemic) [Compound 1, rac 6-(1-Isopropyl-1H-pyrazol-3-yl)-N-((1R,3S)-3-methoxycyclopentyl)-5-methyl-2-(1-methyl-1H-imidazol-2-yl)pyrrolo[2,1-f][1,2,4]triazin-4-amine] | F* (F* = 31-74% activation) | H* (H* ≥ 100% activation) | –
CC(C)n1ccc(-c2cn3nc(-c4nccn4C)nc(O)c3c2-c2ccccc2)n1 [Compound 17, 6-(1-Isopropyl-1H-pyrazol-3-yl)-2-(1-methyl-1H-imidazol-2-yl)-5-phenylpyrrolo[2,1-f][1,2,4]triazin-4-ol] | 0 (0 = 0% inhibition) | 0 (0 = 0% inhibition) | –
COC1CCCN(c2nc(-c3nccn3C)nn3cc(-c4ccn(C(C)C)n4)c(C)c23)C1 (racemic) [Compound 4, rac 6-(1-Isopropyl-1H-pyrazol-3-yl)-5-methyl-2-(1-methyl-1H-imidazol-2-yl)-4-(3-(oxo-γ6-methyl)piperidin-1-yl)pyrrolo[2,1-f][1,2,4]triazine] | G* (G* = 75-99% activation) | G* (G* = 75-99% activation) | –
COCC1CCN(c2nc(-c3nccn3C)nn3cc(-c4ccn(C(C)C)n4)c(C)c23)C1 (racemic) [Compound 2, rac 6-(1-Isopropyl-1H-pyrazol-3-yl)-4-(3-(methoxymethyl)pyrrolidin-1-yl)-5-methyl-2-(1-methyl-1H-imidazol-2-yl)pyrrolo[2,1-f][1,2,4]triazine] | F* (F* = 31-74% activation) | H* (H* ≥ 100% activation) | –
Cc1c(-c2ccn(C(C)C)n2)cn2nc(-c3nccn3C)nc(Nc3noc(C4CC4)n3)c12 [Compound 75, 5-Cyclopropyl-N-(6-(1-isopropyl-1H-pyrazol-3-yl)-5-methyl-2-(1-methyl-1H-imidazol-2-yl)pyrrolo[2,1-f][1,2,4]triazin-4-yl)-1,2,4-oxadiazol-3-amine] | – | – | 1 to 25
COC[C@@H]1CC[C@@H]1CNc1nc(-c2nccn2C)nn2cc(-c3ccn(C(C)C)n3)c(C)c12 (racemic) [Compound 3, rac 6-(1-Isopropyl-1H-pyrazol-3-yl)-N-(((1S,2R)-2-(methoxymethyl)cyclobutyl)methyl)-5-methyl-2-(1-methyl-1H-imidazol-2-yl)pyrrolo[2,1-f][1,2,4]triazin-4-amine] | H* (H* ≥ 100% activation) | H* (H* ≥ 100% activation) | –
CO[C@H]1CC[C@@H](Nc2nc(-c3nccn3C)nn3cc(-c4ccn(C(C)C)n4)c(-c4ccccc4)c23)C1 (racemic) [Compound 18, rac 6-(1-Isopropyl-1H-pyrazol-3-yl)-N-((1R,3S)-3-methoxycyclopentyl)-2-(1-methyl-1H-imidazol-2-yl)-5-phenylpyrrolo[2,1-f][1,2,4]triazin-4-amine hydrochloride] | F* (F* = 31-74% activation) | H* (H* ≥ 100% activation) | –
COCCO[C@H]1C[C@H](Nc2nc(-c3nccn3C)nn3cc(-c4ccn(C(C)C)n4)c(C)c23)C1 [Compound 92, 6-(1-Isopropyl-1H-pyrazol-3-yl)-N-((1r,3r)-3-(2-methoxyethoxy)cyclobutyl)-5-methyl-2-(1-methyl-1H-imidazol-2-yl)pyrrolo[2,1-f][1,2,4]triazin-4-amine] | – | – | 1 to 25
COc1cccc(-c2cn3nc(-c4nccn4C)nc(N[C@@H]4CC[C@@H](OC)C4)c3c2-c2ccccc2)c1Cl.Cl (racemic) [Compound 34, rac 6-(2-Chloro-3-methoxyphenyl)-N-((1R,3R)-3-methoxycyclopentyl)-2-(1-methyl-1H-imidazol-2-yl)-5-phenylpyrrolo[2,1-f][1,2,4]triazin-4-amine hydrochloride] | H (H = 100% inhibition) | H (H = 100% inhibition) | 1 to 25
COC[C@@H]1CC[C@@H]1CNc1nc(-c2nccn2C)nn2cc(-c3ccn(C(C)C)n3)c(-c3ccccc3)c12 (racemic) [Compound 20, rac 6-(1-Isopropyl-1H-pyrazol-3-yl)-N-(((1S,2R)-2-(methoxymethyl)cyclobutyl)methyl)-2-(1-methyl-1H-imidazol-2-yl)-5-phenylpyrrolo[2,1-f][1,2,4]triazin-4-amine] | H* (H* ≥ 100% activation) | H* (H* ≥ 100% activation) | –
COC1CCCN(c2nc(-c3nccn3C)nn3cc(-c4ccn(C(C)C)n4)c(-c4ccccc4)c23)C1 (racemic) [Compound 21, rac 6-(1-Isopropyl-1H-pyrazol-3-yl)-4-(3-methoxypiperidin-1-yl)-2-(1-methyl-1H-imidazol-2-yl)-5-phenylpyrrolo[2,1-f][1,2,4]triazine] | H* (H* ≥ 100% activation) | H* (H* ≥ 100% activation) | –
COc1cccc(Nc2nc(-c3nccn3C)nn3cc(-c4ccn(C(C)C)n4)c(C)c23)n1 [Compound 7, 6-(1-Isopropyl-1H-pyrazol-3-yl)-N-(6-methoxypyridin-2-yl)-5-methyl-2-(1-methyl-1H-imidazol-2-yl)pyrrolo[2,1-f][1,2,4]triazin-4-amine] | H* (H* ≥ 100% activation) | H* (H* ≥ 100% activation) | –
COCC1CCN(c2nc(-c3nccn3C)nn3cc(-c4ccn(C(C)C)n4)c(-c4ccccc4)c23)C1.Cl (racemic) [Compound 19, rac 6-(1-Isopropyl-1H-pyrazol-3-yl)-4-(3-(methoxymethyl)pyrrolidin-1-yl)-2-(1-methyl-1H-imidazol-2-yl)-5-phenylpyrrolo[2,1-f][1,2,4]triazine hydrochloride salt] | F* (F* = 31-74% activation) | H* (H* ≥ 100% activation) | –
COc1cc(Nc2nc(-c3nccn3C)nn3cc(-c4ccn(C(C)C)n4)c(-c4ccccc4)c23)ncn1 [Compound 22, 6-(1-Isopropyl-1H-pyrazol-3-yl)-N-(6-methoxypyrimidin-4-yl)-2-(1-methyl-1H-imidazol-2-yl)-5-phenylpyrrolo[2,1-f][1,2,4]triazin-4-amine] | H* (H* ≥ 100% activation) | H* (H* ≥ 100% activation) | –
